{"source": "patent US9210914B2", "about": "“Method for training honeybees to respond to olfactory stimuli and enhancement of memory retention therein” (LOS ALAMOS NATIONAL SECURITY, LLC, priority 2011, dated 2015)", "type_in_all_cases": "in vivo, Apis mellifera", "key": {"[1]": {"test_system": "honeybees", "assay": "Long-term memory retention of conditioned PER response in honeybees fed supplements", "procedure": "(§1) The bees were brought back to the lab and split into three groups. One control group was fed 40% sugar water in a trough or on parafilm in cage. […] The second and third experimental groups were given 40% sugar water spiked with the cocktail. All honeybees were handled the same way. The mixture was to the honeybees from the beginning of capture, through training and until the completion of the experiment.\nLong-term memory enhancements using PKA and caffeine were also tested. […] Approximately 3.9 units PKA/bee (1 μl) and 15.6 units PKA/bee (4 μl) were administrated."}, "[2]": {"test_system": "honeybees", "assay": "Trainability of honeybees in PER olfactory conditioning", "conditions": "JHIII alone, 250 mg/ml in acetone, topical administration to thorax, 3 ul; foragers (TNT) or young (linalool)"}, "[3]": {"test_system": "honeybees", "assay": "Death rate of honeybees after supplement administration", "conditions": "Four μl PKA (15.6 units PKA/bee)", "procedure": "as §1\nLong-term memory enhancements using PKA and caffeine were also tested. Caffeine and PKA, when administered separately, increase long-term memory out to a minimum of 3 days post training. Approximately 3.9 units PKA/bee (1 μl) and 15.6 units PKA/bee (4 μl) were administrated."}, "[4]": {"conditions": "1 μl PKA (approximately 3.9 units PKA/bee)"}}, "data": [{"compound": "Cn1c(=O)c2c(ncn2C)n(C)c1=O", "note": "[Caffeine, caffeine]", "values": [{"measurement": "long term memory recall", "setting": "[1]; caffeine at 2.5 mM, compared to concentrations ranging 0-5 mM", "value": "best improvement in long term memory recall"}]}, {"compound": "COC(=O)/C=C(\\C)CC/C=C(\\C)CC[C@H]1OC1(C)C", "note": "[JHIII, Juvenile Hormone III]", "values": [{"measurement": "trainability", "setting": "[2]", "value": "does not appear to substantially increase trainability"}]}, {"compound": "Nc1ncnc2c1ncn2[C@@H]1O[C@@H]2COP(=O)(O)O[C@H]2[C@H]1O", "note": "[cAMP, cyclic adenosine monophosphate]", "values": [{"measurement": "long-term memory in honeybees trained to C-4", "setting": "[1]; 1mM cAMP ingested in 40% sucrose solution, alone", "value": "did not appear to significantly increase long-term memory"}]}, {"compound": "protein kinase A [PKA]", "values": [{"measurement": "long-term memory at the 24 hour mark", "setting": "[1]; [4]", "value": "increase in long-term memory"}, {"measurement": "long-term memory at the 48 hour mark", "setting": "[1]; [4]", "value": "increase in long-term memory"}, {"measurement": "death rate at Day 3 post training and exposure", "setting": "[3]", "value": "larger death rate"}]}]}
